Assay results from US7034020B2, “Derivatives of butyric acid and uses thereof” (The University of Arkansas for Medical Science, priority 1999, dated 2006).
Several values for one entry are separate records, joined by “and”; a condition that tells them apart may be missing. Equal values may be shown once. Read-outs that look alike come from different tables or passages of the source.

Experiments:
[1] = tested on: KLH-specific Th1 cells (clone D3); assay: IL-2-induced proliferation of Th1 cells in the presence of butyrate derivatives; type: cell-based, C57BL/10 mice; settings: for Suppression of IL-2-induced proliferation of Th1 cells: 10% Con A CM, various concentrations, proliferation after 2 days
Experimental: KLH-specific Th1 cells (clone D3) are stimulated with IL-2 (10% Con A CM) in the presence of different concentrations of n-butyrate or butyrate derivatives. In FIG. 2A Th1 cell proliferation is measured after 2 days. In FIG. 2B, the inhibitors are washed out after 24 hours, and the Th1 cells reincubated with fresh IL-2-containing medium. Proliferation of the Th1 cells restimulated with IL-2 in the absence of the inhibitors is measured after an additional 2 days. This experiment was repeated three times, and the proliferation data represents the means of the […] experiments.
The KLH-specific were developed in C57BL/10 mice, and characterized as Th1 clones based on their ability to secrete IL-2, but not IL-4. The Th1 clones were passed every 7–14 days using KLH, irradiated syngeneic spleen cells as antigen-presenting cells (APC), and IL-2-containing Con A CM using a previously described protocol (Gilbert et al., 1990).
To test the ability of the butyrate derivatives to suppress T cell activity […], Th1 cells [(5×10^4 cells/well in 96 well plates (Costar)] are stimulated with 10% IL-2-containing Con A CM in the presence of various concentrations of different butyrate derivatives. In some cultures, Th1 cell proliferation is measured after two days. In other cultures, the Th1 cells are washed after 24 hours, and fresh IL-2-containing medium is added. Proliferation is measured in the washed, IL-2-restimulated cultures after an additional 2 days.

[2] = tested on: total anti-ovalbumin antibody in the serum; assay: Primary anti-ovalbumin antibody production in vivo (ELISA), derivatives on Days 1–3; parameters: species or system C57BL/10 mice; settings: 0.091 mmol ip Days 1–3; serum day 10; versus saline
Experimental: C57BL/10 mice are injected ip on Day 0 with ovalbumin followed by ip injections of saline, or one of three different butyrate derivatives on Days 1–3.
The butyrate derivatives are tested for their ability to suppress lymphocyte activity in vivo. C57BL/10 mice (5 mice/group) are injected ip with 100 μg of ovalbumin in conjunction with complete Freund's adjuvant on Day 0. In one experiment, the mice also receive one ip injection per day of the butyrate derivatives (0.091 mmol) on Days 1–3. Serum samples are obtained 10 days after the initial injection with ovalbumin, and tested for the presence of anti-ovalbumin antibodies using an ELISA. To perform the ELISA 96 well plates (Costar 3595) are first incubated with ovalbumin (100 μl/well of 100 μg/ml in PBS) overnight at 4° C. The plates are then washed 4 times with PBS and 0.5% Tween 20, blocked with 1% fetal calf serum for 30 minutes at 37° C., and washed again. Individual serum samples are added (diluted 1/100 or 1/1000 in PBS), and the plates are incubated for 2 hours at 20° C. The plates were next washed 7 times with PBS/Tween, and alkaline phosphate (AP)-labeled goat anti-mouse IgG, IgA, IgM (H+L) (Zymed) is added ( 1/1000) for 1 hour at 20° C. The plates are again washed 7 times with PBS/Tween, alkaline phosphate substrate (1 mg/ml) is added. After 10 minutes, Ig levels are quantified by an ELISA reader (absorbance 405 nm). The concentration of anti-ovalbumin is determined by comparison with a standard curve obtained using mouse anti-ovalbumin antibody (Sigma; St. Louis, Mo.). To measure isotype-specific anti-ovalbumin antibodies, serum samples (diluted at 1/300 or 1/1000) are incubated on the ovalbumin-coated plates as described above. […] Ig levels are presented as OD measurements.

[3] = humans; perfused at doses as high as 2 g/kg/day (Perrine et al., 1994); cited from earlier work
[4] = tested on: Anti-HGG antibody in serum; assay: Primary anti-HGG antibody response in mice treated with n-butyrate; type: in vivo; parameters: Anti-HGG antibody in serum of individual mice: unit not given here; settings: for Anti-HGG antibody in serum, group mean (x) / Anti-HGG antibody in serum of individual mice: ELISA day 9; for Anti-HGG antibody in serum, group mean (x): mean of 5 mice; for Anti-HGG antibody in serum of individual mice: HGG 100 μg ip day 0
From the text: Prior to testing the suppressive effects of butyrate prodrugs in vivo, the ability of n-butyrate to inhibit a primary antibody response in mice was examined.

[5] = Daniel et al., 1989, cited from earlier work
[6] = Experiment 1, 5.5 mg n-butyrate ip days 2–5
[7] = Experiment 2, 5.5 mg n-butyrate ip days 2–6

In the case of `CCCC(=O)OCCN1CCN(C(=O)CCC)CC1.Cl` [BEB, 2-(4-Butanoylpiperazinyl)ethyl butanoate hydrochloride], the “Suppression of IL-2-induced proliferation of Th1 cells” value [1] is reported as “comparable to n-butyrate”, the “Proliferation to IL-2 after compounds are washed out” value ([1]; washed after 24 hours, fresh IL-2 medium, additional 2 days) is reported as “regained their ability to proliferate to IL-2” and the “Effect on primary antigen-specific antibody production in vivo” value [2] is reported as “significantly less antigen-specific antibody than control mice”.
In the case of `CCCC(=O)O.CCCC(=O)O.CCCC(=O)O.CCCC(=O)O.N=C(N)NCCC[C@H](N)C(=O)O.N=C(N)NCCC[C@H](N)C(=O)O.N=C(N)NCCC[C@H](N)C(=O)O` [arginine salt of butyrate], the Toxicity [3] is given as “nontoxic”.
For `CCCC(=O)NCCN1CCOCC1.Cl` [MEBA, 2-(4-Morpholinyl)ethyl butanamide hydrochloride], the “Suppression of IL-2-induced proliferation of Th1 cells” value [1] was “does not suppress” and the “Effect on primary antigen-specific antibody production in vivo” value [2] was “unable to suppress”.
With `CCCC(=O)O` [n-butyrate] the “Anti-HGG antibody in serum, group mean (x)” value [4, 6] was “x = 86 ± 72”, the “Anti-HGG antibody in serum of individual mice” value [4, 6] was 202 and 91 and 29 and 83 and 24 and the “Anti-HGG antibody in serum, group mean (x)” value [4, 7] was “x = 12 ± 11”. The “Anti-HGG antibody in serum of individual mice” value [4, 7] was 12 and 6 and 4 and 9 and 31, the “Suppression of primary antibody response” value ([4]; mice, n-butyrate ip, versus control) was 40–50% and the half-life in vivo [5] was “six”. For the same compound, the half-life in vivo ([5]; listed as n-buytyrate) was 3 to 6 min.
